Experiment: In vivo biodistribution of ^225Ac complexes after intravenous injection
Design: species or system C57BL/6 mice
Method: In Vivo Biodistribution of ^225Ac Complexes of Macropa and DOTA. All experiments were approved by the Institutional Animal Care Committee (IACC) of the University of British Columbia and were performed in accordance with the Canadian Council on Animal Care Guidelines. A total of 9 female C57BL/6 mice (6-8 weeks old, 20-25 g) were used for the biodistribution study of each radiometal complex, n=3 for each time point.
Macropa (100 μL of a 1 mg/mL solution in NH4OAc) was diluted with 387 μL of NH4OAc (1 M, pH 7), and an aliquot (203 μL) of ^225Ac(NO3)3 (˜157 kBq) was then added; the pH of this solution was adjusted to 6.5-7 by the addition of 1 M NaOH (210 μL, trace metal grade). After 5 min at ambient temperature, the reaction solution was analyzed by TLC (0.4 M pH 4 sodium citrate as the eluent), which confirmed >95% radiochemical yield. The reaction was allowed to proceed overnight, and the radiochemical yield was again confirmed to be >95% the following morning. At this time, mice were anesthetized by 2% isoflurane, and approximately 100 μL (10-15 kBq) of the [^225Ac(macropa)]^+ complex were injected into the tail vein of each mouse. After injection, mice were allowed to recover and roam freely in their cages, and were euthanized by CO2 inhalation at 15 min, 1 h, or 5 h (n=3 at each time point) post-injection. Blood was collected by cardiac puncture and placed into an appropriate test tube for scintillation counting. Tissues collected included heart, liver, kidneys, lungs, small intestine, large intestine, brain, bladder, spleen, stomach, pancreas, bone, thyroid, tail, urine, and feces. Tissues were weighed and then counted with a calibrated gamma counter (Packard, Cobra II model 5002) using three energy windows: 60-120 keV (window A), 180-260 keV (window B), and 400-480 keV (window C). Counting was performed both immediately after sacrifice and after 7 days; counts were decay corrected from the time of injection and then converted to the percentage of injected dose (% ID) per gram of tissue (% ID/g). No differences were noted between the data; therefore, the biodistributions are reported using the data acquired immediately using window A.
The biodistribution studies of [^225Ac(DOTA)]^− and ^225Ac(NO3)3 were carried out as described above for [^225Ac(macropa)]^+, with the following modifications. [^225Ac(DOTA)]^− was prepared by adding ^225Ac(NO3)3 (338 μL, 1.1 MBq) to a solution of DOTA (100 μg, 20 mg/mL in H2O) in NH4OAc (467 μL, 0.15 M, pH 7). The pH of the solution was adjusted to 7 using NH4OAc (150 μL, 1 M, pH 7) and the solution was heated at 85° C. for 45 min. RCY>99% was confirmed by TLC as described above. [^225Ac(DOTA)]^− was diluted with saline to a final concentration of 0.05 MBq/100 μL, and 100 μL were injected into each mouse. ^225Ac(NO3)3 (˜58 μL, 0.4 MBq) was diluted and injected in the same manner as [^225Ac(DOTA)]^−. One mouse that was to be euthanized at the 5 h time point in the [^225Ac(DOTA)]^− study died shortly after injection. In the same manner, one mouse that was to be euthanized at the 1 h time point in the ^225Ac(NO3)3 study died.
The in vivo stability [^225Ac(macropa)]^+ was examined by comparing its biodistribution to those of ^225Ac(NO3)3 and [^225Ac(DOTA)]^−. C57BL/6 mice were injected via tail vein with 10-50 kBq of each radiometal complex and were sacrificed after 15 min, 1 h, or 5 h. The amount of ^225Ac retained in each organ was quantified by gamma counting and reported as the percent of injected dose per gram of tissue (% ID/g). The results of these studies are compiled in Tables 1-3. Inadequate stability of an ^225Ac complex leading to the loss of radioisotope in vivo is manifested by the accumulation of ^225Ac in the liver, spleen, and bone of mice.^[11,12,32] […] The biodistribution profile of [^225Ac(macropa)]^+ (FIG. 3B) differs markedly from that of ^225Ac(NO3)3. […]

[1] = 15 min after i.v. injection, energy window A (60-120 keV)
[2] = 15 min after i.v. injection, energy window B (180-260 keV)
[3] = 15 min after i.v. injection, energy window C (400-480 keV)
[4] = 1 h after i.v. injection, energy window A (60-120 keV)
[5] = 1 h after i.v. injection, energy window B (180-260 keV)
[6] = 1 h after i.v. injection, energy window C (400-480 keV)
[7] = 5 h after i.v. injection, energy window A (60-120 keV)
[8] = 5 h after i.v. injection, energy window B (180-260 keV)
[9] = 5 h after i.v. injection, energy window C (400-480 keV)
[10] = i.v. injection, C57BL/6 mice, up to 5 h

O=C([O-])c1cccc(CN2CCOCCOCCN(Cc3cccc(C(=O)[O-])n3)CCOCCOCC2)n1.[225Ac+3] [[^225Ac(macropa)]^+]
% ID/g in bladder [1]: 46.74 % ID/g
% ID/g in blood [1]: 5.11 % ID/g
% ID/g in bone (femur + joint) [1]: 2.52 % ID/g
% ID/g in brain [1]: 0.26 % ID/g
% ID/g in feces [1]: 0.91 % ID/g
% ID/g in heart [1]: 2.19 % ID/g
% ID/g in kidneys [1]: 27.55 % ID/g
% ID/g in large intestines [1]: 2.40 % ID/g
% ID/g in liver [1]: 2.28 % ID/g
% ID/g in lungs [1]: 5.98 % ID/g
% ID/g in pancreas [1]: 1.46 % ID/g
% ID/g in small intestines [1]: 2.64 % ID/g
% ID/g in spleen [1]: 2.52 % ID/g
% ID/g in stomach [1]: 2.97 % ID/g
% ID/g in tail [1]: 8.84 % ID/g
% ID/g in thyroids [1]: 28.23 % ID/g
% ID/g in urine [1]: 1378.82 % ID/g
% ID/g in bladder [2]: 47.64 % ID/g
% ID/g in blood [2]: 5.23 % ID/g
% ID/g in bone (femur + joint) [2]: 2.69 % ID/g
% ID/g in brain [2]: 0.23 % ID/g
% ID/g in feces [2]: 1.04 % ID/g
% ID/g in heart [2]: 2.39 % ID/g
% ID/g in kidneys [2]: 27.86 % ID/g
% ID/g in large intestines [2]: 2.53 % ID/g
% ID/g in liver [2]: 2.17 % ID/g
% ID/g in lungs [2]: 5.83 % ID/g
% ID/g in pancreas [2]: 1.63 % ID/g
% ID/g in small intestines [2]: 2.59 % ID/g
% ID/g in spleen [2]: 2.55 % ID/g
% ID/g in stomach [2]: 3.29 % ID/g
% ID/g in tail [2]: 9.39 % ID/g
% ID/g in thyroids [2]: −2.22 % ID/g
% ID/g in urine [2]: 1541.60 % ID/g
% ID/g in bladder [3]: 64.68 % ID/g
% ID/g in blood [3]: 6.49 % ID/g
% ID/g in bone (femur + joint) [3]: 3.74 % ID/g
% ID/g in brain [3]: 0.17 % ID/g
% ID/g in feces [3]: 1.26 % ID/g
% ID/g in heart [3]: 2.87 % ID/g
% ID/g in kidneys [3]: 33.46 % ID/g
% ID/g in large intestines [3]: 3.02 % ID/g
% ID/g in liver [3]: 2.72 % ID/g
% ID/g in lungs [3]: 7.55 % ID/g
% ID/g in pancreas [3]: 3.00 % ID/g
% ID/g in small intestines [3]: 3.46 % ID/g
% ID/g in spleen [3]: 3.79 % ID/g
% ID/g in stomach [3]: 3.45 % ID/g
% ID/g in tail [3]: 11.75 % ID/g
% ID/g in thyroids [3]: −6.46 % ID/g
% ID/g in urine [3]: 2387.66 % ID/g
% ID/g in bladder [4]: 6.23 % ID/g
% ID/g in blood [4]: 0.40 % ID/g
% ID/g in bone (femur + joint) [4]: 0.31 % ID/g
% ID/g in brain [4]: 0.12 % ID/g
% ID/g in feces [4]: 0.28 % ID/g
% ID/g in heart [4]: 0.31 % ID/g
% ID/g in kidneys [4]: 13.36 % ID/g
% ID/g in large intestines [4]: 0.36 % ID/g
% ID/g in liver [4]: 0.75 % ID/g
% ID/g in lungs [4]: 0.51 % ID/g
% ID/g in pancreas [4]: 0.19 % ID/g
% ID/g in small intestines [4]: 1.10 % ID/g
% ID/g in spleen [4]: 0.51 % ID/g
% ID/g in stomach [4]: 0.41 % ID/g
% ID/g in tail [4]: 1.82 % ID/g
% ID/g in thyroids [4]: 3.18 % ID/g
% ID/g in urine [4]: 489.11 % ID/g
% ID/g in bladder [5]: 5.92 % ID/g
% ID/g in blood [5]: 0.39 % ID/g
% ID/g in bone (femur + joint) [5]: 0.17 % ID/g
% ID/g in brain [5]: 0.12 % ID/g
% ID/g in feces [5]: 0.27 % ID/g
% ID/g in heart [5]: 0.20 % ID/g
% ID/g in kidneys [5]: 12.97 % ID/g
% ID/g in large intestines [5]: 0.22 % ID/g
% ID/g in liver [5]: 0.70 % ID/g
% ID/g in lungs [5]: 0.54 % ID/g
% ID/g in pancreas [5]: 0.12 % ID/g
% ID/g in small intestines [5]: 0.94 % ID/g
% ID/g in spleen [5]: 0.23 % ID/g
% ID/g in stomach [5]: 0.33 % ID/g
% ID/g in tail [5]: 1.82 % ID/g
% ID/g in thyroids [5]: 0.10 % ID/g
% ID/g in urine [5]: 517.19 % ID/g
% ID/g in bladder [6]: 9.00 % ID/g
% ID/g in blood [6]: 0.54 % ID/g
% ID/g in bone (femur + joint) [6]: 0.70 % ID/g
% ID/g in brain [6]: 0.23 % ID/g
% ID/g in feces [6]: 0.69 % ID/g
% ID/g in heart [6]: 0.23 % ID/g
% ID/g in kidneys [6]: 17.38 % ID/g
% ID/g in large intestines [6]: 0.79 % ID/g
% ID/g in liver [6]: 1.08 % ID/g
% ID/g in lungs [6]: 0.84 % ID/g
% ID/g in pancreas [6]: 0.43 % ID/g
% ID/g in small intestines [6]: 1.62 % ID/g
% ID/g in spleen [6]: 0.48 % ID/g
% ID/g in stomach [6]: 0.17 % ID/g
% ID/g in tail [6]: 2.57 % ID/g
% ID/g in thyroids [6]: 8.34 % ID/g
% ID/g in urine [6]: 641.63 % ID/g
% ID/g in bladder [7]: 4.25 % ID/g
% ID/g in blood [7]: 0.01 % ID/g
% ID/g in bone (femur + joint) [7]: 0.05 % ID/g
% ID/g in brain [7]: 0.02 % ID/g
% ID/g in feces [7]: 3.46 % ID/g
% ID/g in heart [7]: 0.10 % ID/g
% ID/g in kidneys [7]: 0.74 % ID/g
% ID/g in large intestines [7]: 0.49 % ID/g
% ID/g in liver [7]: 0.39 % ID/g
% ID/g in lungs [7]: 0.01 % ID/g
% ID/g in pancreas [7]: 0.10 % ID/g
% ID/g in small intestines [7]: 0.29 % ID/g
% ID/g in spleen [7]: 0.11 % ID/g
% ID/g in stomach [7]: 0.01 % ID/g
% ID/g in tail [7]: 0.14 % ID/g
% ID/g in thyroids [7]: 0.10 % ID/g
% ID/g in urine [7]: 12.78 % ID/g
% ID/g in bladder [8]: 3.69 % ID/g
% ID/g in blood [8]: 0.00 % ID/g
% ID/g in bone (femur + joint) [8]: 0.02 % ID/g
% ID/g in brain [8]: −0.01 % ID/g
% ID/g in feces [8]: 3.49 % ID/g
% ID/g in heart [8]: −0.04 % ID/g
% ID/g in kidneys [8]: 0.78 % ID/g
% ID/g in large intestines [8]: 0.45 % ID/g
% ID/g in liver [8]: 0.36 % ID/g
% ID/g in lungs [8]: −0.05 % ID/g
% ID/g in pancreas [8]: −0.12 % ID/g
% ID/g in small intestines [8]: 0.29 % ID/g
% ID/g in spleen [8]: 0.09 % ID/g
% ID/g in stomach [8]: 0.04 % ID/g
% ID/g in tail [8]: 0.13 % ID/g
% ID/g in thyroids [8]: −6.94 % ID/g
% ID/g in urine [8]: 13.51 % ID/g
% ID/g in bladder [9]: 8.52 % ID/g
% ID/g in blood [9]: 0.04 % ID/g
% ID/g in bone (femur + joint) [9]: 0.08 % ID/g
% ID/g in brain [9]: −0.01 % ID/g
% ID/g in feces [9]: 5.27 % ID/g
% ID/g in heart [9]: 0.28 % ID/g
% ID/g in kidneys [9]: 1.07 % ID/g
% ID/g in large intestines [9]: 0.68 % ID/g
% ID/g in liver [9]: 0.55 % ID/g
% ID/g in lungs [9]: 0.15 % ID/g
% ID/g in pancreas [9]: 0.13 % ID/g
% ID/g in small intestines [9]: 0.42 % ID/g
% ID/g in spleen [9]: 0.43 % ID/g
% ID/g in stomach [9]: 0.13 % ID/g
% ID/g in tail [9]: 0.28 % ID/g
% ID/g in thyroids [9]: 19.89 % ID/g
% ID/g in urine [9]: 22.27 % ID/g
route of excretion (in words) (i.v. injection, C57BL/6 mice): Most of the injected dose was renally excreted
clearance from blood / mice (in words) [10]: rapidly cleared from mice
organ accumulation (in words) [10]: did not accumulate in any organ

From patent US11554182B2, “Macrocyclic complexes of alpha-emitting radionuclides and their use in targeted radiotherapy of cancer” (CORNELL UNIVERSITY, priority 2017, dated 2023)
